Reference: PubChem BioAssay AID256 (DTP/NCI, 2004)
Where “and” joins values, the source holds several entries; their conditions need not be identical. Equal values may be shown once. Toxic doses and inconclusive results are not listed. How the source made its calls: active means survival T/C of 150% or more; inactive means T/C below 125% in these data.

System: CD2F1 mice, L1210 leukemia ip, survival T/C
Experiment: NCI In Vivo Anticancer Drug Screen. Data for tumor model L1210 Leukemia (intraperitoneal) in CD2F1 (CDF1) mice
Conditions: higher = longer survival
Outline: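 Antitumor effect is scored in animals hosting a serially transplanted tumor. Values compare compound-dosed animals against vehicle-only controls as a simple quotient.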

Measured: T/C

O=C(O)CCCc1ccc(N(CCCl)CCCl)cc1
inactive: endpoint: mean survival time, dose: 0.5 mg/kg/injection, schedule: Q01DX009 (ip), vehicle: Klucel (hydroxypropylcellulose) (HPC) 103 % of control and 108 % of control | endpoint: mean survival time, dose: 1.0 mg/kg/injection, schedule: Q01DX009 (ip), vehicle: Klucel (hydroxypropylcellulose) (HPC) 94 % of control and 100 % of control and 106 % of control | endpoint: mean survival time, dose: 1.0 mg/kg/injection, schedule: Q03HX024 (ip), vehicle: other 102 % of control | endpoint: mean survival time, dose: 1.56 mg/kg/injection, schedule: Q01DX009 (ip), vehicle: saline 101 % of control and 103 % of control | endpoint: mean survival time, dose: 2.0 mg/kg/injection, schedule: Q01DX009 (ip), vehicle: Klucel (hydroxypropylcellulose) (HPC) 97 % of control and 100 % of control and 103 % of control | endpoint: mean survival time, dose: 2.0 mg/kg/injection, schedule: Q01DX009 (ip), vehicle: saline with Tween-80 106 % of control | endpoint: mean survival time, dose: 2.0 mg/kg/injection, schedule: Q01DX009 (oral), vehicle: other 102 % of control | endpoint: mean survival time, dose: 2.0 mg/kg/injection, schedule: Q03HX008 (ip), vehicle: other 101 % of control | endpoint: mean survival time, dose: 2.0 mg/kg/injection, schedule: Q03HX016 (ip), vehicle: other 103 % of control | endpoint: mean survival time, dose: 2.0 mg/kg/injection, schedule: Q03HX024 (ip), vehicle: other 105 % of control | endpoint: mean survival time, dose: 3.13 mg/kg/injection, schedule: Q01DX009 (ip), vehicle: saline 119 % of control and 110 % of control | endpoint: mean survival time, dose: 3.75 mg/kg/injection, schedule: Q01DX009 (ip), vehicle: Klucel (hydroxypropylcellulose) (HPC) 102 % of control | endpoint: mean survival time, dose: 4.0 mg/kg/injection, schedule: Q01DX001 (ip), vehicle: saline with Tween-80 91 % of control | endpoint: mean survival time, dose: 4.0 mg/kg/injection, schedule: Q01DX001 (oral), vehicle: other 95 % of control | endpoint: mean survival time, dose: 4.0 mg/kg/injection, schedule: Q01DX009 (ip), vehicle: Klucel (hydroxypropylcellulose) (HPC) 116 % of control and 101 % of control and 111 % of control | endpoint: mean survival time, dose: 4.0 mg/kg/injection, schedule: Q01DX009 (ip), vehicle: other 114 % of control | endpoint: mean survival time, dose: 4.0 mg/kg/injection, schedule: Q01DX009 (ip), vehicle: saline with Tween-80 117 % of control and 103 % of control | endpoint: mean survival time, dose: 4.0 mg/kg/injection, schedule: Q01DX009 (oral), vehicle: other 96 % of control | endpoint: mean survival time, dose: 4.0 mg/kg/injection, schedule: Q01DX009 (sc), vehicle: other 102 % of control | endpoint: mean survival time, dose: 4.0 mg/kg/injection, schedule: Q03HX008 (ip), vehicle: other 102 % of control | endpoint: mean survival time, dose: 4.0 mg/kg/injection, schedule: Q03HX016 (ip), vehicle: other 110 % of control | endpoint: mean survival time, dose: 4.0 mg/kg/injection, schedule: Q03HX024 (ip), vehicle: other 111 % of control | endpoint: mean survival time, dose: 4.0 mg/kg/injection, schedule: Q04DX003 (ip), vehicle: saline with Tween-80 102 % of control | endpoint: mean survival time, dose: 4.0 mg/kg/injection, schedule: Q04DX003 (oral), vehicle: other 107 % of control | endpoint: mean survival time, dose: 6.25 mg/kg/injection, schedule: Q01DX009 (ip), vehicle: saline 106 % of control and 110 % of control | endpoint: mean survival time, dose: 7.5 mg/kg/injection, schedule: Q01DX007 (ip), vehicle: saline 108 % of control | endpoint: mean survival time, dose: 7.5 mg/kg/injection, schedule: Q01DX009 (ip), vehicle: saline 114 % of control | endpoint: mean survival time, dose: 7.5 mg/kg/injection, schedule: Q03DX003 (ip), vehicle: saline 104 % of control | endpoint: mean survival time, dose: 7.5 mg/kg/injection, schedule: Q04DX003 (ip), vehicle: saline 102 % of control | endpoint: mean survival time, dose: 8.0 mg/kg/injection, schedule: Q01DX001 (ip), vehicle: saline with Tween-80 96 % of control | endpoint: mean survival time, dose: 8.0 mg/kg/injection, schedule: Q01DX001 (oral), vehicle: other 96 % of control | endpoint: mean survival time, dose: 8.0 mg/kg/injection, schedule: Q01DX009 (ip), vehicle: Klucel (hydroxypropylcellulose) (HPC) 113 % of control and 117 % of control and 105 % of control | endpoint: mean survival time, dose: 8.0 mg/kg/injection, schedule: Q01DX009 (ip), vehicle: other 120 % of control | endpoint: mean survival time, dose: 8.0 mg/kg/injection, schedule: Q01DX009 (ip), vehicle: saline with Tween-80 117 % of control and 101 % of control | endpoint: mean survival time, dose: 8.0 mg/kg/injection, schedule: Q01DX009 (oral), vehicle: other 106 % of control | endpoint: mean survival time, dose: 8.0 mg/kg/injection, schedule: Q01DX009 (sc), vehicle: other 111 % of control | endpoint: mean survival time, dose: 8.0 mg/kg/injection, schedule: Q03HX008 (ip), vehicle: other 119 % of control | endpoint: mean survival time, dose: 8.0 mg/kg/injection, schedule: Q03HX016 (ip), vehicle: other 118 % of control | endpoint: mean survival time, dose: 8.0 mg/kg/injection, schedule: Q04DX003 (ip), vehicle: other 118 % of control | endpoint: mean survival time, dose: 8.0 mg/kg/injection, schedule: Q04DX003 (ip), vehicle: saline with Tween-80 109 % of control | endpoint: mean survival time, dose: 8.0 mg/kg/injection, schedule: Q04DX003 (oral), vehicle: other 96 % of control | endpoint: mean survival time, dose: 10.0 mg/kg/injection, schedule: Q01DX009 (ip), vehicle: saline with Tween-80 118 % of control | endpoint: mean survival time, dose: 12.5 mg/kg/injection, schedule: Q01DX009 (ip), vehicle: saline 119 % of control | endpoint: mean survival time, dose: 15.0 mg/kg/injection, schedule: Q01DX007 (ip), vehicle: saline 122 % of control | endpoint: mean survival time, dose: 15.0 mg/kg/injection, schedule: Q01DX009 (ip), vehicle: Klucel (hydroxypropylcellulose) (HPC) 108 % of control | endpoint: mean survival time, dose: 15.0 mg/kg/injection, schedule: Q01DX009 (ip), vehicle: saline with Tween-80 120 % of control | endpoint: mean survival time, dose: 15.0 mg/kg/injection, schedule: Q01DX009 (ip), vehicle: saline 120 % of control | endpoint: mean survival time, dose: 15.0 mg/kg/injection, schedule: Q03DX003 (ip), vehicle: saline 117 % of control | endpoint: mean survival time, dose: 15.0 mg/kg/injection, schedule: Q04DX003 (ip), vehicle: saline 111 % of control | endpoint: mean survival time, dose: 16.0 mg/kg/injection, schedule: Q01DX001 (ip), vehicle: other 102 % of control | endpoint: mean survival time, dose: 16.0 mg/kg/injection, schedule: Q01DX001 (ip), vehicle: saline with Tween-80 107 % of control | endpoint: mean survival time, dose: 16.0 mg/kg/injection, schedule: Q01DX001 (oral), vehicle: other 93 % of control | endpoint: mean survival time, dose: 16.0 mg/kg/injection, schedule: Q01DX001 (sc), vehicle: other 104 % of control | endpoint: mean survival time, dose: 16.0 mg/kg/injection, schedule: Q01DX009 (ip), vehicle: Klucel (hydroxypropylcellulose) (HPC) 114 % of control and 97 % of control | endpoint: mean survival time, dose: 16.0 mg/kg/injection, schedule: Q01DX009 (ip), vehicle: saline with Tween-80 118 % of control and 97 % of control | endpoint: mean survival time, dose: 16.0 mg/kg/injection, schedule: Q01DX009 (oral), vehicle: other 120 % of control | endpoint: mean survival time, dose: 16.0 mg/kg/injection, schedule: Q01DX009 (sc), vehicle: other 120 % of control | endpoint: mean survival time, dose: 16.0 mg/kg/injection, schedule: Q04DX003 (ip), vehicle: other 115 % of control | endpoint: mean survival time, dose: 16.0 mg/kg/injection, schedule: Q04DX003 (ip), vehicle: saline with Tween-80 120 % of control | endpoint: mean survival time, dose: 16.0 mg/kg/injection, schedule: Q04DX003 (oral), vehicle: other 103 % of control | endpoint: mean survival time, dose: 16.0 mg/kg/injection, schedule: Q08DX002 (ip), vehicle: other 101 % of control | endpoint: mean survival time, dose: 30.0 mg/kg/injection, schedule: Q01DX007 (ip), vehicle: saline with Tween-80 90 % of control | endpoint: mean survival time, dose: 30.0 mg/kg/injection, schedule: Q01DX009 (ip), vehicle: Klucel (hydroxypropylcellulose) (HPC) 110 % of control | endpoint: mean survival time, dose: 30.0 mg/kg/injection, schedule: Q01DX009 (ip), vehicle: saline 124 % of control | endpoint: mean survival time, dose: 30.0 mg/kg/injection, schedule: Q04DX003 (ip), vehicle: saline 114 % of control | endpoint: mean survival time, dose: 32.0 mg/kg/injection, schedule: Q01DX001 (ip), vehicle: other 108 % of control | endpoint: mean survival time, dose: 32.0 mg/kg/injection, schedule: Q01DX001 (ip), vehicle: saline with Tween-80 117 % of control and 109 % of control | endpoint: mean survival time, dose: 32.0 mg/kg/injection, schedule: Q01DX001 (oral), vehicle: other 96 % of control | endpoint: mean survival time, dose: 32.0 mg/kg/injection, schedule: Q01DX001 (sc), vehicle: other 108 % of control | endpoint: mean survival time, dose: 32.0 mg/kg/injection, schedule: Q01DX009 (oral), vehicle: other 102 % of control | endpoint: mean survival time, dose: 32.0 mg/kg/injection, schedule: Q04DX003 (ip), vehicle: other 120 % of control | endpoint: mean survival time, dose: 32.0 mg/kg/injection, schedule: Q04DX003 (oral), vehicle: other 103 % of control | endpoint: mean survival time, dose: 32.0 mg/kg/injection, schedule: Q08DX002 (ip), vehicle: other 108 % of control | endpoint: mean survival time, dose: 64.0 mg/kg/injection, schedule: Q01DX001 (ip), vehicle: other 118 % of control | endpoint: mean survival time, dose: 64.0 mg/kg/injection, schedule: Q01DX001 (oral), vehicle: other 102 % of control | endpoint: mean survival time, dose: 64.0 mg/kg/injection, schedule: Q01DX001 (sc), vehicle: other 114 % of control | endpoint: mean survival time, dose: 64.0 mg/kg/injection, schedule: Q04DX003 (oral), vehicle: other 93 % of control | endpoint: mean survival time, dose: 64.0 mg/kg/injection, schedule: Q08DX002 (ip), vehicle: other 112 % of control | endpoint: median survival time, dose: 3.13 mg/kg/injection, schedule: Q01DX009 (ip), vehicle: saline 114 % of control and 105 % of control | endpoint: median survival time, dose: 6.25 mg/kg/injection, schedule: Q01DX009 (ip), vehicle: saline 114 % of control and 105 % of control | endpoint: median survival time, dose: 12.5 mg/kg/injection, schedule: Q01DX009 (ip), vehicle: saline 117 % of control

NCc1cccc([N+](=O)[O-])c1
inactive: endpoint: mean survival time, dose: 100.0 mg/kg/injection, schedule: Q04DX003 (ip), vehicle: saline 106 % of control | endpoint: mean survival time, dose: 200.0 mg/kg/injection, schedule: Q04DX003 (ip), vehicle: saline 109 % of control | endpoint: mean survival time, dose: 400.0 mg/kg/injection, schedule: Q04DX003 (ip), vehicle: saline 98 % of control
